Experimental findings from patent US20240409585A1, “MACROCYCLIC IMMUNOMODULATORS” (priority 2021, published 2024) are described below.

Molecules are shown by their SMILES. Bridge positions count the residues as written; N and C are the ends. Square brackets hold non-standard residues; d marks the D form. Peptide text beside a SMILES is read from it. * marks the point of attachment. ξ: configuration not given here. Phe(4-CONH2) = NC(=O)c1ccc(C[C@H](N)C(=O)O)cc1; Phe(4-COOH) = N[C@@H](Cc1ccc(C(=O)O)cc1)C(=O)O; Bip = N[C@@H](Cc1ccc(-c2ccccc2)cc1)C(=O)O; Phe(3-Cl) = N[C@@H](Cc1cccc(Cl)c1)C(=O)O; Phe(3-OMe) = COc1cccc(C[C@H](N)C(=O)O)c1; Phe(3-Me) = Cc1cccc(C[C@H](N)C(=O)O)c1; Val(3-OH) = CC(C)(O)[C@H](N)C(=O)O; mTyr = N[C@@H](Cc1cccc(O)c1)C(=O)O; NMeF = CN[C@@H](Cc1ccccc1)C(=O)O; 3Pal = N[C@@H](Cc1cccnc1)C(=O)O; 4Pal = N[C@@H](Cc1ccncc1)C(=O)O; Cha = N[C@@H](CC1CCCCC1)C(=O)O; Cit = NC(=O)NCCC[C@H](N)C(=O)O; Ile(3ξ) = CCC(C)[C@H](N)C(=O)O; Thr(3ξ) = CC(O)[C@H](N)C(=O)O; ξCha = NC(CC1CCCCC1)C(=O)O; Pip = O=C(O)[C@@H]1CCCCN1; Carboxymethyl = O=C(O)C*; NMeA = CN[C@@H](C)C(=O)O; Orn = NCCC[C@H](N)C(=O)O; Dab = NCC[C@H](N)C(=O)O; Dap = NC[C@H](N)C(=O)O

T1 sequence (Q15116 25-288): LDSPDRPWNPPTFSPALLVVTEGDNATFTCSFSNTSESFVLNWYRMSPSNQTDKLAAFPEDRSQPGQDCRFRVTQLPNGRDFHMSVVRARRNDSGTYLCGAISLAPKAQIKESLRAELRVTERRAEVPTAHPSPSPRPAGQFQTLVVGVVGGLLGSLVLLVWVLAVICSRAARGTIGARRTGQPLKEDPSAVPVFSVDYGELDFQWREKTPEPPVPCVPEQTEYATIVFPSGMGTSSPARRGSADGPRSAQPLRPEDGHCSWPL

One assay has as its target T1, PE-labeled human PD-L1-Ig binding to Jurkat cell line over-expressing human PD-1 (Jurkat-PD-1) (Homo sapiens, UniProt Q15116).
T1 construct: expressed in transfected cells; host or cells: Jurkat
The assay is described as follows: Jurkat-PD-1 Cell Binding High-Content Screening Assay (CBA): Method 1. Particulars: Jurkat-PD-1 cells, PE-labeled PD-L1-Ig; μM; read-out: CBA Method 1 μM.
For `CCC(C)[C@@H]1NC(=O)[C@H](Cc2ccc(-c3ccccc3)cc2)NC(=O)[C@H](C(C)C)NC(=O)[C@H](Cc2c[nH]c3ccccc23)NC(=O)[C@H](CC(=O)O)NC(=O)[C@H](Cc2ccc(OCC(=O)O)cc2)NC(=O)[C@H](C(C)O)NC(=O)CSC[C@@H](C(=O)N[C@@H](CO)C(=O)NCC(=O)N[C@@H](CO)C(N)=O)NC(=O)[C@H](C(C)O)NC(=O)[C@H](C(C)C)NC(=O)C(CC2CCCCC2)NC(=O)[C@H](CCN)NC(=O)[C@@H](CC(C)C)NC(=O)[C@H](C)N(C)C1=O` (stereo partly drawn) [Example 5003] ({CH2CO}-[Thr(3ξ)]Y(Carboxymethyl)DWV[Bip][Ile(3ξ)][NMeA][dL][Dab][ξCha]V[Thr(3ξ)]CSGS-NH2; thioether N-14), the IC50 was 0.03 µM.

Staying with this assay, now noted: Jurkat-hPD-1 cells, PE-labeled PD-L1-Ig 20 nM final; read-out: Jurkat HPDL1 PD1 IC50 (uM) (Method 1).
For `CC(C)C[C@@H]1NC(=O)[C@H](CCN)NC(=O)[C@@H](CC(C)C)NC(=O)[C@H](C)N(C)C(=O)[C@H](C(C)C)NC(=O)[C@H](Cc2ccc(-c3ccccc3)cc2)NC(=O)[C@H](C(C)C)NC(=O)[C@H](Cc2c[nH]c3ccccc23)NC(=O)[C@H](CC(=O)O)NC(=O)[C@H](Cc2cccc(O)c2)NC(=O)[C@H](CC(N)=O)NC(=O)CSC[C@@H](C(=O)N[C@@H](C)C(N)=O)NC(=O)[C@H]([C@@H](C)O)NC(=O)[C@H](C(C)C)NC1=O` [Compound 1384] ({CH2CO}-N[mTyr]DWV[Bip]V[NMeA][dL][Dab]LVTCA-NH2; thioether N-14), the IC50 stood at 0.02 µM.
Take `CC(C)C[C@@H]1NC(=O)[C@H](Cc2c[nH]c3ccccc23)NC(=O)[C@H](CC(=O)O)NC(=O)[C@H](Cc2ccc(O)cc2)NC(=O)[C@H](CC(N)=O)NC(=O)CSC[C@@H](C(=O)N[C@@H](C)C(N)=O)NC(=O)[C@H]([C@@H](C)O)NC(=O)[C@H](C(C)C)NC(=O)[C@H](CC(C)C)NC(=O)[C@H](CCCNC(=N)N)NC(=O)[C@@H](CC(C)C)NC(=O)[C@H](C)N(C)C(=O)[C@H](CCCNC(=N)N)NC(=O)[C@H](Cc2ccc(-c3ccccc3)cc2)NC1=O` [Compound 1215] ({CH2CO}-NYDWL[Bip]R[NMeA][dL]RLVTCA-NH2; thioether N-14): the IC50 stood at 0.08 µM.
In the case of `Cc1cccc(C[C@@H]2NC(=O)[C@H](CC(=O)O)NC(=O)[C@H](Cc3ccc(OCC(=O)O)cc3)NC(=O)[C@H](Cc3ccc(OCC(=O)O)cc3)NC(=O)CSC[C@@H](C(N)=O)NC(=O)[C@H]([C@@H](C)O)NC(=O)[C@H](C(C)C)NC(=O)[C@H](CC3CCCCC3)NC(=O)[C@H](CCN)NC(=O)[C@@H](CC(C)C)NC(=O)[C@H](C)N(C)C(=O)[C@H](Cc3ccc(OCC(=O)O)cc3)NC(=O)[C@H](Cc3ccc(-c4ccccc4)cc3)NC(=O)[C@H](Cc3ccc(OCC(=O)O)cc3)NC2=O)c1` [Compound 1656] ({CH2CO}-Y(Carboxymethyl)Y(Carboxymethyl)D[Phe(3-Me)]Y(Carboxymethyl)[Bip]Y(Carboxymethyl)[NMeA][dL][Dab][Cha]VTC-NH2; thioether N-14), the IC50 amounted to 0.03 µM.
As for `CC(C)C[C@@H]1NC(=O)[C@H](Cc2c[nH]c3ccccc23)NC(=O)[C@H](CC(=O)O)NC(=O)[C@H](Cc2ccncc2)NC(=O)[C@H](Cc2ccc(OCC(=O)O)cc2)NC(=O)CSC[C@@H](C(=O)N[C@@H](CCN)C(N)=O)NC(=O)[C@H](CCCN)NC(=O)[C@H](C(C)C)NC(=O)[C@H](CC2CCCCC2)NC(=O)[C@H](CCN)NC(=O)[C@@H](CC(C)C)NC(=O)[C@H](C)N(C)C(=O)[C@H](C(C)C)NC(=O)[C@H](Cc2ccc(-c3ccccc3)cc2)NC1=O` [Compound 1948] ({CH2CO}-Y(Carboxymethyl)[4Pal]DWL[Bip]V[NMeA][dL][Dab][Cha]V[Orn]C[Dab]-NH2; thioether N-14), the IC50 was 0.02 µM.
In the case of `CCC(C)[C@@H]1NC(=O)[C@H](Cc2ccc(-c3ccccc3)cc2)NC(=O)[C@H](CCC(=O)O)NC(=O)[C@H](Cc2c[nH]c3ccccc23)NC(=O)[C@H](CC(N)=O)NC(=O)[C@H](Cc2ccc(O)cc2)NC(=O)[C@H](Cc2ccncc2)NC(=O)CSC[C@@H](C(=O)N[C@@H](C)C(N)=O)NC(=O)[C@H](C(C)O)NC(=O)[C@H](CCN)NC(=O)[C@H](CC(C)C)NC(=O)[C@H](CC(N)=O)NC(=O)[C@@H](CC(C)C)NC(=O)[C@H](C)N(C)C1=O` (stereo partly drawn) [Compound 2059] ({CH2CO}-[4Pal]YNWE[Bip][Ile(3ξ)][NMeA][dL]NL[Dab][Thr(3ξ)]CA-NH2; thioether N-14), the IC50 was determined as 0.74 µM.
Turning to `CC(C)C[C@@H]1NC(=O)[C@H](CCN)NC(=O)[C@@H](CC(C)C)NC(=O)[C@H](C)N(C)C(=O)[C@H](CCCNC(=N)N)NC(=O)[C@H](Cc2ccc(-c3ccccc3)cc2)NC(=O)[C@H](C(C)C)NC(=O)[C@H](Cc2c[nH]c3ccccc23)NC(=O)[C@H](CC(=O)O)NC(=O)[C@H](Cc2cnc[nH]2)NC(=O)[C@H](Cc2cnc[nH]2)NC(=O)CSC[C@@H](C(=O)N[C@@H](C)C(N)=O)NC(=O)[C@H]([C@@H](C)O)NC(=O)[C@H](C(C)C)NC1=O` [Compound 1142] ({CH2CO}-HHDWV[Bip]R[NMeA][dL][Dab]LVTCA-NH2; thioether N-14), the IC50 came to 0.24 µM.
Still for that read-out and setting: as for `Cc1cccc(C[C@@H]2NC(=O)[C@H](CC(=O)O)NC(=O)[C@H](Cc3ccc(OCC(=O)O)cc3)NC(=O)[C@H](Cc3ccccc3)N(C)C(=O)CSC[C@@H](C(=O)N[C@@H](CCN)C(N)=O)NC(=O)[C@H](CO)NC(=O)[C@H](C(C)C)NC(=O)[C@H](CC3CCCCC3)NC(=O)[C@H](CCN)NC(=O)[C@@H](CC(C)C)NC(=O)[C@H](C)N(C)C(=O)[C@H](Cc3ccc(OCC(=O)O)cc3)NC(=O)[C@H](Cc3ccc(-c4ccccc4)cc3)NC(=O)[C@H](Cc3ccc(OCC(=O)O)cc3)NC2=O)c1` [Compound 1861] ({CH2CO}-[NMeF]Y(Carboxymethyl)D[Phe(3-Me)]Y(Carboxymethyl)[Bip]Y(Carboxymethyl)[NMeA][dL][Dab][Cha]VSC[Dab]-NH2; thioether N-14), the figure is 0.1 µM; as for `CCC(C)[C@@H]1NC(=O)[C@H](Cc2ccc(-c3ccccc3)cc2)NC(=O)[C@H](C(C)C)NC(=O)[C@H](Cc2c[nH]c3ccccc23)NC(=O)[C@H](CC(=O)O)NC(=O)[C@H](Cc2cccc(OC)c2)NC(=O)[C@H](Cc2cccnc2)NC(=O)CSC[C@@H](C(=O)NCC(=O)N[C@@H](CN)C(=O)O)NC(=O)[C@H](C(C)O)NC(=O)[C@H](C(C)C)NC(=O)[C@H](CC2CCCCC2)NC(=O)[C@H](CC(N)=O)NC(=O)[C@@H](CC(C)C)NC(=O)[C@H](C)N(C)C1=O` (stereo partly drawn) [Compound 2006] ({CH2CO}-[3Pal][Phe(3-OMe)]DWV[Bip][Ile(3ξ)][NMeA][dL]N[Cha]V[Thr(3ξ)]CG[Dap]-OH; thioether N-14), 0.04 µM.
`CC(C)C[C@@H]1NC(=O)[C@H](CCN)NC(=O)[C@@H](CC(C)C)NC(=O)[C@H](C)N(C)C(=O)[C@H](CCCNC(N)=O)NC(=O)[C@H](Cc2ccc(-c3ccccc3)cc2)NC(=O)[C@H](C(C)C)NC(=O)[C@H](Cc2c[nH]c3ccccc23)NC(=O)[C@H](CC(=O)O)NC(=O)[C@H](Cc2cccc(Cl)c2)NC(=O)[C@H](CC(N)=O)NC(=O)CSC[C@@H](C(=O)N[C@@H](C)C(N)=O)NC(=O)[C@H]([C@@H](C)O)NC(=O)[C@H](C(C)C)NC1=O` [Compound 1310] ({CH2CO}-N[Phe(3-Cl)]DWV[Bip][Cit][NMeA][dL][Dab]LVTCA-NH2; thioether N-14): the IC50 came to 0.11 µM.
On the same count and under the same terms, as for `Cc1cccc(C[C@@H]2NC(=O)[C@H](CC(=O)O)NC(=O)[C@H](Cc3ccc(OCC(=O)O)cc3)NC(=O)[C@H](C(C)O)NC(=O)CSC[C@@H](C(=O)N[C@@H](CO)C(N)=O)NC(=O)[C@H](CO)NC(=O)[C@H](C(C)(C)O)NC(=O)[C@H](CC3CCCCC3)NC(=O)[C@H](CCN)NC(=O)[C@@H](CC(C)C)NC(=O)[C@H](C)N(C)C(=O)[C@H](Cc3ccc(C(=O)O)cc3)NC(=O)[C@H](Cc3ccc(-c4ccccc4)cc3)NC(=O)[C@H](Cc3ccc(C(N)=O)cc3)NC2=O)c1` (stereo partly drawn) [Compound 2181] ({CH2CO}-[Thr(3ξ)]Y(Carboxymethyl)D[Phe(3-Me)][Phe(4-CONH2)][Bip][Phe(4-COOH)][NMeA][dL][Dab][Cha][Val(3-OH)]SCS-NH2; thioether N-14), the figure is 0.05 µM.
In the case of `Cc1cccc(C[C@@H]2NC(=O)[C@H](CC(=O)O)NC(=O)[C@H](Cc3ccc(OCC(=O)O)cc3)NC(=O)[C@H](CN)NC(=O)CSC[C@@H](C(N)=O)NC(=O)[C@H]([C@@H](C)O)NC(=O)[C@H](C(C)C)NC(=O)[C@H](CC3CCCCC3)NC(=O)[C@H](CCN)NC(=O)[C@@H](CC(C)C)NC(=O)[C@@H]3CCCCN3C(=O)[C@H](Cc3ccc(OCC(=O)O)cc3)NC(=O)[C@H](Cc3ccc(-c4ccccc4)cc3)NC(=O)[C@H](Cc3ccc(OCC(=O)O)cc3)NC2=O)c1` [Compound 1891] ({CH2CO}-[Dap]Y(Carboxymethyl)D[Phe(3-Me)]Y(Carboxymethyl)[Bip]Y(Carboxymethyl)[Pip][dL][Dab][Cha]VTC-NH2; thioether N-14), the IC50 worked out at 0.15 µM.
As to `CC(C)C[C@@H]1NC(=O)[C@H](CCN)NC(=O)[C@@H](CC(C)C)NC(=O)[C@H](C)N(C)C(=O)[C@H](C(C)C)NC(=O)[C@H](Cc2ccc(-c3ccccc3)cc2)NC(=O)[C@H](C(C)C)NC(=O)[C@H](Cc2c[nH]c3ccccc23)NC(=O)[C@H](CC(=O)O)NC(=O)[C@H](Cc2ccc(O)cc2)NC(=O)[C@H](CCCNC(=N)N)NC(=O)CSC[C@@H](C(=O)N[C@@H](C)C(N)=O)NC(=O)[C@H]([C@@H](C)O)NC(=O)[C@H](C(C)C)NC1=O` [Compound 1394] ({CH2CO}-RYDWV[Bip]V[NMeA][dL][Dab]LVTCA-NH2; thioether N-14), the IC50 stood at 0.01 µM.
Consider `Cc1cccc(C[C@@H]2NC(=O)[C@H](CC(=O)O)NC(=O)[C@H](Cc3ccc(OCC(=O)O)cc3)NC(=O)[C@H](C(C)O)NC(=O)CSC[C@@H](C(=O)N[C@@H](CO)C(=O)O)NC(=O)[C@H](C(C)O)NC(=O)[C@H](C(C)C)NC(=O)[C@H](CC3CCCCC3)NC(=O)[C@H](CCN)NC(=O)[C@@H](CC(C)C)NC(=O)[C@H](C)N(C)C(=O)[C@H](Cc3ccc(OCC(=O)O)cc3)NC(=O)[C@H](Cc3ccc(-c4ccccc4)cc3)NC(=O)[C@H](Cc3ccc(C(=O)O)cc3)NC2=O)c1` (stereo partly drawn) [Compound 2231] ({CH2CO}-[Thr(3ξ)]Y(Carboxymethyl)D[Phe(3-Me)][Phe(4-COOH)][Bip]Y(Carboxymethyl)[NMeA][dL][Dab][Cha]V[Thr(3ξ)]CS-OH; thioether N-14), for which the IC50 came out at 0.02 µM.
